Test results from article PMC10575921 (Nature Communications, 2023).
pEC50, pIC50: −log10 of the molar value. Several values for one entry are separate records, joined by “and”; a condition that tells them apart may be missing. Equal values may be shown once. Read-outs that look alike come from different tables or passages of the source.

Experiments:
SARS-CoV-2 3CL^pro [1] = target: T1, SARS-CoV-2 3CL^pro (Severe acute respiratory syndrome coronavirus 2, UniProt P0DTD1); test: biochemical; settings: for inhibition at 0.01563 µM / inhibition at 0.03125 µM / inhibition at 1 µM / inhibition at 0.5 µM: read-out: inhibition ratio (%); for inhibition at 1 µM: concentration 1000.00 nM
[2] = buffer, pH 7.4
SARS-CoV-2 3CL^pro [3] = target: T1, SARS-CoV-2 3CL^pro; type: biochemical
in vitro = settings: African green monkey
SARS-CoV-2 Delta strain = test: microbe, parasite or virus in culture; type: cell-based

Row | SMILES | inhibition at 0.01563 µM (SARS-CoV-2 3CL^pro [1]; concentration 15.63 nM) [%] | inhibition at 0.03125 µM (SARS-CoV-2 3CL^pro [1]; concentration 31.25 nM) [%] | inhibition at 1 µM (SARS-CoV-2 3CL^pro [1]) [%] | GSHt1/2 (half-life of the electrophile warhead to react with glutathione) [2] [h] | reversibility of SARS-CoV-2 3CLpro inhibition (SARS-CoV-2 3CL^pro [3]) | pIC50 (SARS-CoV-2 3CL^pro [1]; IC50) | IC50 (SARS-CoV-2 3CL^pro [1]; IC50 (nM)) | inhibition at 0.5 µM (SARS-CoV-2 3CL^pro [1]; concentration 500.00 nM) [%] | CC50 (in vitro) [nM] | pEC50 (SARS-CoV-2 Delta strain; Severe acute respiratory syndrome coronavirus 2, Vero C1008) | EC50 (SARS-CoV-2 Delta strain; Severe acute respiratory syndrome coronavirus 2, Vero C1008, read-out: EC50 (nM), single independent experiment) [nM] | pEC50 (SARS-CoV-2 Delta strain; read-out: EC50^CP) | inhibition at 0.01563 µM (SARS-CoV-2 3CL^pro [1]; 15.63 nM) [%] | inhibition at 0.03125 µM (SARS-CoV-2 3CL^pro [1]; 31.25 nM) [%] | inhibition at 0.5 µM (SARS-CoV-2 3CL^pro [1]; 500.00 nM) [%] | EC50 (SARS-CoV-2 Delta strain; Severe acute respiratory syndrome coronavirus 2, Vero C1008, read-out: EC50 (nM) Mean) [nM]
1 | CC(C)(C)NC(=O)N[C@H](C(=O)N1C[C@H]2[C@@H]([C@H]1C(=O)N[C@H](C=O)C[C@@H]1CCNC1=O)C2(C)C)C(C)(C)C [compound 1] | 72.2 | 81.7 | 99.4 | 1.68 | – | – | – | – | – | – | – | – | – | – | – | –
2 | CC(=O)/C=C/[C@H](C[C@@H]1CCNC1=O)NC(=O)[C@@H]1[C@@H]2[C@H](CN1C(=O)[C@@H](NC(=O)NC(C)(C)C)C(C)(C)C)C2(C)C [compound 3] | 52.7 | 85.4 | 99.6 | 0.25 | irreversible | 7.85 | 12 nM and 17 nM and 14 nM | 101 | – | – | – | – | – | – | – | –
3 | CC(C)(C)NC(=O)N[C@H](C(=O)N1C[C@H]2[C@@H]([C@H]1C(=O)N[C@H](C#N)C[C@@H]1CCNC1=O)C2(C)C)C(C)(C)C [compound 2] | – | 59.6 | – | 16 | – | – | – | 100 | > 500000 | 5.13 | 5890 | 6.50 | – | – | – | –
4 | CC(C)(C)[C@H](NS(=O)(=O)C1CC1)C(=O)N1CC2(C[C@H]1C(=O)N[C@H](C#N)C[C@@H]1CCNC1=O)SCCS2 [compound 12] | – | – | – | – | – | – | – | – | > 500000 | – | – | – | 72.8 | 86.6 | 97.9 | 10700
